Experimental data taken from ChEMBL document CHEMBL1201862, “PubChem BioAssay data set” (2004).
Activity calls are given as the source filed them.

How the values were obtained:
Hexokinase HKDC1 = molecular target: T1, Hexokinase HKDC1 (Homo sapiens, UniProt Q2TB90); experiment: activation of HKDC1 glucose phosphorylation – biochemical, W721R variant, dose response (AID 504730); type: functional
T1 sequence (Q2TB90 whole entry): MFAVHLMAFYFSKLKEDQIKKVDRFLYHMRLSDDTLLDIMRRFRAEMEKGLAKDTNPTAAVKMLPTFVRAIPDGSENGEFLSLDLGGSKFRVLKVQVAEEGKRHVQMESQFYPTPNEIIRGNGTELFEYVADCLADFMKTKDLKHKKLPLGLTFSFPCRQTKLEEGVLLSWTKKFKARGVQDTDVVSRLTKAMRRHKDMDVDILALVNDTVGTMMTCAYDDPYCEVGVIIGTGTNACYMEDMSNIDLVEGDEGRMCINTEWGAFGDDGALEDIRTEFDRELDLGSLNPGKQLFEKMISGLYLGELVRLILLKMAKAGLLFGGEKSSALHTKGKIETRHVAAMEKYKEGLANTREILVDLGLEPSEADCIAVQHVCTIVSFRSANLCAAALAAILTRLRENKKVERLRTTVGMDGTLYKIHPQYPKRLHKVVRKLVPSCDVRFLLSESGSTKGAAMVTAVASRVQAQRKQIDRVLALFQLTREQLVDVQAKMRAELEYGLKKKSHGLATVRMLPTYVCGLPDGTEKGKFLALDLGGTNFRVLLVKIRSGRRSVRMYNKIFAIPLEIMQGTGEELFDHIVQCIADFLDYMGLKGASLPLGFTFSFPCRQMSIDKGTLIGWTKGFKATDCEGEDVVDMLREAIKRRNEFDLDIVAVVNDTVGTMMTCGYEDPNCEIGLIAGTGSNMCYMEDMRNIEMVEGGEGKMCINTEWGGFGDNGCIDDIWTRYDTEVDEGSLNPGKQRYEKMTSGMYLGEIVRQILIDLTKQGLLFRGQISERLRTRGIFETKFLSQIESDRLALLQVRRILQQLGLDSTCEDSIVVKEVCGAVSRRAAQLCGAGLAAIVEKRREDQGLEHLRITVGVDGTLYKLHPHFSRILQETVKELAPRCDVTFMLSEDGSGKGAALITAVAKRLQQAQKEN

Nonstructural protein 1 = Nonstructural protein 1 (Influenza A virus, UniProt Q194T2); type: functional, Influenza A virus (A/California/07/2009(H1N1))
HEK293 [1] = experiment: EBV LMP1 TES2 canonical NF-kB signalling blockers – cell-based, HEK293, luciferase, cherry-pick, dose response (AID 588343); type: functional; details: Homo sapiens
[2] = molecular target: Heat shock protein HSP 90-alpha (Homo sapiens, UniProt P07900); type: functional, organism-based
Hexokinase-1 = Hexokinase-1 (Homo sapiens, UniProt P19367); experiment: HK1 enzyme activation by HKDC1 hits – biochemical, selectivity assay for HKDC1 activator project, dose response (AID 504762); type: functional
[3] = (§1) Counterscreen for antagonists of the orexin 1 receptor (OX1R; HCRTR1): Fluorescence-based cell-based high throughput dose response assay to identify antagonists of the parental CHO cell line. [Related pubchem assays (depositor defined):AID434989, AID435008, AID463079, AID485270, AID492963, AID492964, AID492965, AID493232, AID504699, AID504701]; type: functional
[4] = molecular target: T2, Orexin/Hypocretin receptor type 1 (Homo sapiens, UniProt O43613); experiment: (§2) Fluorescence-based cell-based high throughput dose response assay for antagonists of the orexin 1 receptor (OX1R; HCRTR1). [Related pubchem assays (depositor defined):AID434989, AID435008, AID463079, AID485270, AID492963, AID492964, AID492965, AID493232, AID504717, AID504718]; type: functional
T2 sequence (O43613 whole entry): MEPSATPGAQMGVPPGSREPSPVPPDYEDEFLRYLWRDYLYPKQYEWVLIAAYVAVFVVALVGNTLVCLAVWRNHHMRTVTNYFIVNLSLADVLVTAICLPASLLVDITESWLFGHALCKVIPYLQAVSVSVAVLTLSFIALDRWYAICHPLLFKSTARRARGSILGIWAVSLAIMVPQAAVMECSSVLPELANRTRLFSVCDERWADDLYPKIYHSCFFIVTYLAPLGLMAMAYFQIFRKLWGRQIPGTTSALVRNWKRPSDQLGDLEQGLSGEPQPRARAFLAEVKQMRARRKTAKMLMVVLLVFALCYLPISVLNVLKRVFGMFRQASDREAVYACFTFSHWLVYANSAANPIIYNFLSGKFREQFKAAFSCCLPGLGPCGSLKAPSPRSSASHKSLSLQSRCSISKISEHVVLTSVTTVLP

Orexin receptor type 2 [5] = molecular target: T3, Orexin receptor type 2 (Homo sapiens, UniProt O43614); experiment: Counterscreen assay for antagonists of the orexin 1 receptor (OX1R; HCRTR1): Fluorescence-based cell-based dose response assay for antagonists of the orexin 2 receptor (OX2R; HCRTR2), run by assay provider.; type: functional
T3 sequence (O43614 whole entry): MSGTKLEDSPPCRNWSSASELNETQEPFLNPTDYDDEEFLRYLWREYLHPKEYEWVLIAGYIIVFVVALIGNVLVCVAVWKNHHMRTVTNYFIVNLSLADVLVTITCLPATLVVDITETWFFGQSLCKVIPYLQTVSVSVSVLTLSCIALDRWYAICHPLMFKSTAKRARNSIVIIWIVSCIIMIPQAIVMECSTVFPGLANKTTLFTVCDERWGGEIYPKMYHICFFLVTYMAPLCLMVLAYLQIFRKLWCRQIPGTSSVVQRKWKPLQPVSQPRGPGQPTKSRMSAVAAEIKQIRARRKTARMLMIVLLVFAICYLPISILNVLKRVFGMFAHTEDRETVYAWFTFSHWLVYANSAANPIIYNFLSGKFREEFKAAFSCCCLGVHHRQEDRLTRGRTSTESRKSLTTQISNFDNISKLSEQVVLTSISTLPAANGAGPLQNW

CHO-K1 = experiment: as §1, with “Homogeneous time resolved fluorescence (HTRF)-based” for “Fluorescence-based”, “cell-based” for “cell-based high throughput”, “CHO-K1” for “CHO”; type: functional; details: Cricetulus griseus;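 also: potency for inhibition of ATP-stimulated IP1 production as antagonists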
[6] = molecular target: T2, Orexin/Hypocretin receptor type 1; experiment: as §2, with “Homogeneous Time Resolved Fluorescence (HTRF)-based” for “Fluorescence-based”; type: functional
Orexin receptor type 2 [7] = molecular target: T3, Orexin receptor type 2; experiment: Counterscreen assay for antagonists of the orexin 1 receptor (OX1R; HCRTR1): Homogeneous Time Resolved Fluorescence (HTRF)-based cell-based dose response assay for antagonists of the orexin 2 receptor (OX2R; HCRTR2), run by assay provider.; type: functional
[8] = molecular target: Signal transducer and activator of transcription 3 (Homo sapiens, UniProt P40763); experiment: STAT3 blockade with qPCR and toxicity readouts – cell-based, STAT1 panel, cytotoxicity, late-stage follow-up, panel member STAT3 Inhibition (AID 2078)
[9] = molecular target: Signal transducer and activator of transcription 1-alpha/beta (Homo sapiens, UniProt P42224); experiment: STAT3 blockade with qPCR and toxicity readouts – cell-based, STAT1 panel, cytotoxicity, late-stage follow-up, panel member STAT1 Inhibition (AID 2078)
SUMO-activating enzyme = SUMO-activating enzyme (Homo sapiens, UniProt Q9UBT2); experiment: blockers of UBC9-mediated SUMO conjugation – biochemical, AlphaScreen, SUMOylation inhibitor project, confirmation (AID 2018); type: functional
[10] = Luminescence Cell-Based Dose Response HTS to Identify Inhibitors of 5'UTR Stem-Loop Driven Prion Protein mRNA Translation in H4 Neuroglioblastoma Cells. [Related pubchem assays: 1827 (Project Summary), 1813 (Primary HTS)]; type: functional
[11] = luciferase reporter signal suppression in cells – H4 neuroglioma cells, luminescence, dose response (AID 1990); type: functional, cell-based
[12] = alpha-synuclein stem-loop luciferase translation blockers – H4 neuroglioma cells, luminescence, confirmation (AID 1988); type: functional, cell-based
[13] = molecular target: Nucleotide-binding oligomerization domain-containing protein 2 (Homo sapiens, UniProt Q9HC29); experiment: inhibition of NOD2-driven NF-kB reporter – cell-based, luminescence, uHTS, HEK293 (AID 1566); type: functional
[14] = molecular target: T4, Heat shock factor protein 1 (Mus musculus, UniProt P38532); experiment: decrease of HSF1-responsive luciferase luminescence – cell-based, NIH3T3, dose retest, confirmation (AID 2382); type: functional;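 also: NIH3T3 fibroblasts with HSF1-driven luciferase reporter stressed by proteasome inhibitor MG132; luminescence from HSF1-driven luciferase expression after 8 hours of MG132 stress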
T4 sequence (P38532 whole entry): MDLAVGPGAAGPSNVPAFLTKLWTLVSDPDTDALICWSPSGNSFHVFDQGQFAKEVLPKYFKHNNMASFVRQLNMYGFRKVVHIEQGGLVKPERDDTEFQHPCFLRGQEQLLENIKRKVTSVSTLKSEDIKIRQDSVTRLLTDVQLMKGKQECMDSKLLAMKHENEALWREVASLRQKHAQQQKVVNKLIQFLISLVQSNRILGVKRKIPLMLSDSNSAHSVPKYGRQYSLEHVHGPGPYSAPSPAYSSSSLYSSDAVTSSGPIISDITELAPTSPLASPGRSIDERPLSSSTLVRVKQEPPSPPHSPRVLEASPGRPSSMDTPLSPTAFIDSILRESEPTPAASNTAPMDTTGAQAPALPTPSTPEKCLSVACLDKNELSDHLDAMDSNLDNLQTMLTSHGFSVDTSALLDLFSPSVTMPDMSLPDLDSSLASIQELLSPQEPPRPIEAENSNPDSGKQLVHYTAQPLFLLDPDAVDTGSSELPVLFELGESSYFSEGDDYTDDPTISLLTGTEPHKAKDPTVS

HEK293 [15] = experiment: cells; type: functional, cell-based; details: Homo sapiens
HEK293 [16] = experiment: cells; type: functional, cell-based; details: Homo sapiens; remark: listed apart in the source
HEK293 [17] = experiment: NOD2 signaling inhibitors in MDP-stimulated cells, cell-based, uHTS, luminescence (AID 2001); type: functional; details: Homo sapiens
HEK293 [18] = experiment: cells; type: functional, cell-based; details: Homo sapiens; remark: listed apart in the source
HEK293 [19] = experiment: inhibition of NOD1-driven NF-kB reporter – cell-based, luminescence, uHTS, primary screen (AID 1578); type: functional; details: Homo sapiens
INS1 = experiment: INS-1E survival protection against cytokine death – cell-based, luminescence, retest, dose response (AID 449756); type: functional; details: Rattus norvegicus;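 also: cell death triggered by IL-1 beta plus TNF-alpha plus IFN-gamma mixture; protective hits raise ATP signal compared with cytokine alone wells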

Hexokinase-1, sequence (P19367 whole entry): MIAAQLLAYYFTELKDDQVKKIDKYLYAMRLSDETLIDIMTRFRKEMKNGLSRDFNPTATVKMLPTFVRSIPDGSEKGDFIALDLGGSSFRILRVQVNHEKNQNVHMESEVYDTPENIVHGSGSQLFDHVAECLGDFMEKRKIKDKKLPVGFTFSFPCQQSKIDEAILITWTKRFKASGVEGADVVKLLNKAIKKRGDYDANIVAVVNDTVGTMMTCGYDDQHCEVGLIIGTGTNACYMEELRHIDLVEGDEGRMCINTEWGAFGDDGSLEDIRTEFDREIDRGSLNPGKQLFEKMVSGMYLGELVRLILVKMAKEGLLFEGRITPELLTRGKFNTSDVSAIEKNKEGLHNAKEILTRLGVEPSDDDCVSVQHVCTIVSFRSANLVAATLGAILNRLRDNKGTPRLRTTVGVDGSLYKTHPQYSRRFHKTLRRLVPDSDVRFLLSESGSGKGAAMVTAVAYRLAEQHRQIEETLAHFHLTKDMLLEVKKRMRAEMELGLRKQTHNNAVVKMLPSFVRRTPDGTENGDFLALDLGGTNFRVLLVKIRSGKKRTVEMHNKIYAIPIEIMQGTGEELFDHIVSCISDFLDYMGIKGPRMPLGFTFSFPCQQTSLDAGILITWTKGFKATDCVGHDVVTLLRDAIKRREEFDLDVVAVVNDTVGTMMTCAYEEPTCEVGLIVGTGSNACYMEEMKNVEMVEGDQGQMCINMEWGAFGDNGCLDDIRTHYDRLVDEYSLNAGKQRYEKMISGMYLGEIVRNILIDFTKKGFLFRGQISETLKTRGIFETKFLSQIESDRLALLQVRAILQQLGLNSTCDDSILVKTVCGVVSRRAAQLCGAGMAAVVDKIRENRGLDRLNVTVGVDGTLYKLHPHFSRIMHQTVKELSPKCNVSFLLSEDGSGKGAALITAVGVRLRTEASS
Nucleotide-binding oligomerization domain-containing protein 2, sequence (Q9HC29 whole entry, the tested form may be a part): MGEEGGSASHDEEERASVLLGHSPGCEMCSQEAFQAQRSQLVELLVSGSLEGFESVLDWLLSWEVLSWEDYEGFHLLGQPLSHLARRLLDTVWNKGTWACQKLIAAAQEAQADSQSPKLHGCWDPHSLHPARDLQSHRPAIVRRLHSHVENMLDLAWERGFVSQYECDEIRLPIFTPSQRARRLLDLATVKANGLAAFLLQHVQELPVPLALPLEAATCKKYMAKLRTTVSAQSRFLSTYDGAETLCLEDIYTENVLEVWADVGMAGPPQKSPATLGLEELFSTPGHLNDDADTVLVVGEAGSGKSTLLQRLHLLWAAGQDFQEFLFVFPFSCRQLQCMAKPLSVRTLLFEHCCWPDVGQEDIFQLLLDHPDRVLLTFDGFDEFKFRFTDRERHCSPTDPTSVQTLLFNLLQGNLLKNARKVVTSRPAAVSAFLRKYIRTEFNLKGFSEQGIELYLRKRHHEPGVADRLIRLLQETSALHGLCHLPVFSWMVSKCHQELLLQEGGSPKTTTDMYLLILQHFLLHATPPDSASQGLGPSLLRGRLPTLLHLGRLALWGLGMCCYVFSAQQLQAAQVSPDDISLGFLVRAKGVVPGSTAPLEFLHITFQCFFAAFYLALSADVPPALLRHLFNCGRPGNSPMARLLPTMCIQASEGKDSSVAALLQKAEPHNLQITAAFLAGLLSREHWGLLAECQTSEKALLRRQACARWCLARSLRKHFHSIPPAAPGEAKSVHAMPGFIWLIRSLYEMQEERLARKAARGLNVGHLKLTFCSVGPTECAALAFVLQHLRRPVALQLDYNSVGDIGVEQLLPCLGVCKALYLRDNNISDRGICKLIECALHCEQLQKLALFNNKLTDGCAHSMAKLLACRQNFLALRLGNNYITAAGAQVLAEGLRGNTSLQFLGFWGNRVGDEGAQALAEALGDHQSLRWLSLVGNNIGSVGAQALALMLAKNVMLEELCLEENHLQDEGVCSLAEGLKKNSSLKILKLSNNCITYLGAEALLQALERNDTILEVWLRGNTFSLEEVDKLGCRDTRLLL
SUMO-activating enzyme, sequence (Q9UBE0 whole entry): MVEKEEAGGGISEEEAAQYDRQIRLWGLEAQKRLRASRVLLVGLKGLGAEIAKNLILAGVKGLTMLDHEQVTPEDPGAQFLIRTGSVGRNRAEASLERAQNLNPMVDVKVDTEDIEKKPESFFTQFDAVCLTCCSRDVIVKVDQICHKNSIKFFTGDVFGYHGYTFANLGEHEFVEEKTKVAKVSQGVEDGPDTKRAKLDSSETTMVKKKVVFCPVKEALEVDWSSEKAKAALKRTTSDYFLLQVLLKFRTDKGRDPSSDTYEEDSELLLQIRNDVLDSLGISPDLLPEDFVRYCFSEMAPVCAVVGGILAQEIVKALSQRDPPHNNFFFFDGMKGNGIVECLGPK
SUMO-activating enzyme, sequence (Q9UBT2 whole entry): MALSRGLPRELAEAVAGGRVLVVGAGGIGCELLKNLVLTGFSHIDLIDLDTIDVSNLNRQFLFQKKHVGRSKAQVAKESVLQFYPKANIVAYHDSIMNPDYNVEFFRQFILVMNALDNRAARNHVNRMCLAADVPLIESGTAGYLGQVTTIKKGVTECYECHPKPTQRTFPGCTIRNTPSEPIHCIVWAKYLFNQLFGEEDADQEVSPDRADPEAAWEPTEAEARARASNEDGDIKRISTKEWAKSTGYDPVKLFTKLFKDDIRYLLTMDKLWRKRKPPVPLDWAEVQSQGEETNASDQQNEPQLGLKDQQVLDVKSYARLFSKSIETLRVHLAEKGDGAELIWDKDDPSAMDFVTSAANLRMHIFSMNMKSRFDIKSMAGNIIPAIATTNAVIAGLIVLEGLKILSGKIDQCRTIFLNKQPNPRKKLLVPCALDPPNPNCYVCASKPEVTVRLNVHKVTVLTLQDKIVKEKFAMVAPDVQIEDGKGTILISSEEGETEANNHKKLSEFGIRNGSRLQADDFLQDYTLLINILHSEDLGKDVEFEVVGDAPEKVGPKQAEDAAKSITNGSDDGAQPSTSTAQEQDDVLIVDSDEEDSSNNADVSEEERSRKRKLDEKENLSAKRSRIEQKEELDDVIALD
Signal transducer and activator of transcription 1-alpha/beta, sequence (P42224 whole entry): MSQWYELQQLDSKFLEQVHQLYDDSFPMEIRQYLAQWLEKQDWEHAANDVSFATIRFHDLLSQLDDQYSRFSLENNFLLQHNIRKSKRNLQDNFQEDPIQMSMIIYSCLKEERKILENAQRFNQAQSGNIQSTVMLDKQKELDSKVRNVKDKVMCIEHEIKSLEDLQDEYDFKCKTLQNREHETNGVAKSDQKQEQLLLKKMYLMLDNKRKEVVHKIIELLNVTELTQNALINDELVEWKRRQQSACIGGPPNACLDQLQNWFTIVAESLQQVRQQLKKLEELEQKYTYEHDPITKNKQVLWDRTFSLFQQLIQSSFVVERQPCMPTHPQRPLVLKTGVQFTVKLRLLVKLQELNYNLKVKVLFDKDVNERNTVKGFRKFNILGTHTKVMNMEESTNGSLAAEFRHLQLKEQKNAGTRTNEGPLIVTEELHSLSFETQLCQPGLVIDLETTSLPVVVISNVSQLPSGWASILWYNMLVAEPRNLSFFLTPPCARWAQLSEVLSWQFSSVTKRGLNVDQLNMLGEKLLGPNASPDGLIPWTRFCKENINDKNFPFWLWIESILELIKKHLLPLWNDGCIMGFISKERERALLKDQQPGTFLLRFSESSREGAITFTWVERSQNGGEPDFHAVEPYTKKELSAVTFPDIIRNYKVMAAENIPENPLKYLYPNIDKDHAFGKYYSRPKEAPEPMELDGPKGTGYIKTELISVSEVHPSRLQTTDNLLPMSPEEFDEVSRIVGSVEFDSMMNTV
Signal transducer and activator of transcription 3, sequence (P40763 whole entry): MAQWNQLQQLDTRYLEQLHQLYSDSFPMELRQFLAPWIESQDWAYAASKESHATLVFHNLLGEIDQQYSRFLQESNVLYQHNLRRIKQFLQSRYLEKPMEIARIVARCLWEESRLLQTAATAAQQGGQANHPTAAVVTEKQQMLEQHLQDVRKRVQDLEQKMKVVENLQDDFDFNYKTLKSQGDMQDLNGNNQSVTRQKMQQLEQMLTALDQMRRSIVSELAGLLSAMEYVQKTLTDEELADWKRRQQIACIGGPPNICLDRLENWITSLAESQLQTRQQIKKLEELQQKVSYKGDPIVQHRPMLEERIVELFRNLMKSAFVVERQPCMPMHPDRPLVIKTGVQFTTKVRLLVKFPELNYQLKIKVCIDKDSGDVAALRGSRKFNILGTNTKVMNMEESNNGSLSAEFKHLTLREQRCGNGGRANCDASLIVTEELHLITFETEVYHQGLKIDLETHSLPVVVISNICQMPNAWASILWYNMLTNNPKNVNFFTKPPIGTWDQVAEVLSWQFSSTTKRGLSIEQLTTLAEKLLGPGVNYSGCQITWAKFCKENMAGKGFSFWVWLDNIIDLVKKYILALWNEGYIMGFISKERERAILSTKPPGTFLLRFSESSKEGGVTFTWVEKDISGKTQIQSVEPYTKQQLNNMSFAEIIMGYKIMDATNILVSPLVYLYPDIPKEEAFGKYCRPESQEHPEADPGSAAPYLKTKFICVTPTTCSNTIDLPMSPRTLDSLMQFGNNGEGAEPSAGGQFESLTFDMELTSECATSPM
Nonstructural protein 1, sequence (Q194T2 whole entry): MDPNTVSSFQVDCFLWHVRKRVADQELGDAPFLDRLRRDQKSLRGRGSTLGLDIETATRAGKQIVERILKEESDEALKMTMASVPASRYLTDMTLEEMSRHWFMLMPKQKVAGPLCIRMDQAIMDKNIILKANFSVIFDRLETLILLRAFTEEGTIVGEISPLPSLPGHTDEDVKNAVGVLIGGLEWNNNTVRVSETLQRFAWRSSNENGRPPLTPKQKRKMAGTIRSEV

With `CC(=NNC(=S)Nc1cccc(Cl)c1)c1ccccn1` as the compound, how does the EC50 (Hexokinase HKDC1) read?
Its EC50 is 0.615 µM (active).

And the IC50 (Nonstructural protein 1)?
Its IC50 is 15.4 µM (active).

And the AC50 (HEK293 [1])?
The AC50 was 0.341 µM (active).

And the AC50 [2]?
Its AC50 is 16.2 µM (active).

And the EC50 (Hexokinase-1)?
Its EC50 is > 80 µM (inactive).

Which results are given for `CNc1nc(Nc2ccc(C)c(Cl)c2)c2cnn(C)c2n1`?
IC50 [3]: > 49.8 µM (inactive); IC50 [4]: 14.4 µM (inactive); IC50 (Orexin receptor type 2 [5]): > 88.8 µM (inactive); IC50 (CHO-K1): > 66.2 µM (inactive); IC50 [6]: 2.07 µM (active); IC50 (Orexin receptor type 2 [7]): > 50 µM (inactive)

With `COc1ccc2c(c1)nc(O)c1sc3ccccc3c12` as the compound, how does the IC50 [3] read?
The IC50 was > 49.7 µM (inactive).

What about the IC50 [4] of the same compound?
Its IC50 is 7.77 µM (active).

What about the IC50 (Orexin receptor type 2 [5]) of the same compound?
The IC50 was 5.5 µM (active).

And the IC50 (CHO-K1)?
The IC50 was > 66.2 µM (inactive).

What about the IC50 [6] of the same compound?
Its IC50 is 2.49 µM (active).

And the IC50 (Orexin receptor type 2 [7])?
Its IC50 is > 50 µM (inactive).

With `COC(=O)c1cc2c(N3CCC(Cc4ccccc4)CC3)ncnc2s1` as the compound, how does the IC50 [8] read?
Its IC50 is > 18.6 µM (inactive).

What about the IC50 [9] of the same compound?
The IC50 was > 55.7 µM (inactive).

For `C=CCn1c(N)c(C(=O)Nc2ccccc2)c2nc3ccccc3nc21`, which IC50 (SUMO-activating enzyme) is on record?
The IC50 was 14.5 µM (active).

And the EC50 [10]?
Its EC50 is > 120 µM (not active).

And the EC50 [11]?
Its EC50 is 22 µM (active).

And the EC50 [12]?
The EC50 was > 120 µM (not active).

For `CCCOc1ccc(/C=N/NC(=S)Nc2ccccc2[N+](=O)[O-])c(O)c1`, which EC50 (Hexokinase HKDC1) is on record?
Its EC50 is 26.5 µM (inactive).

And the EC50 [13]?
Its EC50 is 0.78 µM (active).

And the EC50 [14]?
Its EC50 is 11 µM (active).

What about the IC50 (HEK293 [15]) of the same compound?
The IC50 was > 20 µM (inactive).

And the IC50 (HEK293 [16])?
Its IC50 is 1.82 µM (active).

What about the EC50 (Hexokinase-1) of the same compound?
The EC50 was > 80 µM (inactive).

And the IC50 (HEK293 [17])?
Its IC50 is 0.233 µM (active).

What about the IC50 (HEK293 [18]) of the same compound?
Its IC50 is > 20 µM (inactive).

And the EC50 (HEK293 [19])?
The EC50 was 11.9 µM (active).

What about the AC50 (INS1) of the same compound?
The AC50 was 1.28 µM (active).
